What was measured:
SNB-19 = test: Anticancer activity against human SNB-19 cells assessed as cell growth inhibition at 10 uM incubated for 48 hrs by SRB assay relative to control; format: functional; settings: read-out: GI
A549 = test: Anticancer activity against human A549 cells assessed as cell growth inhibition at 10 uM incubated for 48 hrs by SRB assay relative to control; format: functional; settings: read-out: GI
UACC-62 = test: Anticancer activity against human UACC-62 cells assessed as cell growth inhibition at 10 uM incubated for 48 hrs by SRB assay relative to control; format: functional; settings: read-out: GI
NCI-H460 = test: Anticancer activity against human NCI-H460 cells assessed as cell growth inhibition at 10 uM incubated for 48 hrs by SRB assay relative to control; format: functional; settings: read-out: GI
ACHN = test: Anticancer activity against human ACHN cells assessed as cell growth inhibition at 10 uM incubated for 48 hrs by SRB assay relative to control; format: functional; settings: read-out: GI
RPMI-8226 = test: Anticancer activity against human RPMI-8226 cells assessed as cell growth inhibition at 10 uM incubated for 48 hrs by SRB assay relative to control; format: functional; settings: read-out: GI
MDA-MB-231 = test: Anticancer activity against human MDA-MB-231 cells assessed as cell growth inhibition at 10 uM incubated for 48 hrs by SRB assay relative to control; format: functional; settings: read-out: GI
IGROV-1 = test: Anticancer activity against human IGROV-1 cells assessed as cell growth inhibition at 10 uM incubated for 48 hrs by SRB assay relative to control; format: functional; settings: read-out: GI
TK-10 = test: Anticancer activity against human TK-10 cells assessed as cell growth inhibition at 10 uM incubated for 48 hrs by SRB assay relative to control; format: functional; settings: read-out: GI
SN12C = test: Anticancer activity against human SN12C cells assessed as cell growth inhibition at 10 uM incubated for 48 hrs by SRB assay relative to control; format: functional; settings: read-out: GI
UO-31 = test: Anticancer activity against human UO-31 cells assessed as cell growth inhibition at 10 uM incubated for 48 hrs by SRB assay relative to control; format: functional; settings: read-out: GI
SF-268 = test: Anticancer activity against human SF-268 cells assessed as cell growth inhibition at 10 uM incubated for 48 hrs by SRB assay relative to control; format: functional; settings: read-out: GI
COLO 205 = test: Anticancer activity against human COLO 205 cells assessed as cell growth inhibition at 10 uM incubated for 48 hrs by SRB assay relative to control; format: functional; settings: read-out: GI
T47D = test: Anticancer activity against human T47D cells assessed as cell growth inhibition at 10 uM incubated for 48 hrs by SRB assay relative to control; format: functional; settings: read-out: GI
NCI/ADR-RES = test: Anticancer activity against human NCI/ADR-RES cells assessed as cell growth inhibition at 10 uM incubated for 48 hrs by SRB assay relative to control; format: functional; settings: read-out: GI
SK-MEL-2 = test: Anticancer activity against human SK-MEL-2 cells assessed as cell growth inhibition at 10 uM incubated for 48 hrs by SRB assay relative to control; format: functional; settings: read-out: GI
EKVX = test: Anticancer activity against human EKVX cells assessed as cell growth inhibition at 10 uM incubated for 48 hrs by SRB assay relative to control; format: functional; settings: read-out: GI
NCI-H226 = test: Anticancer activity against human NCI-H226 cells assessed as cell growth inhibition at 10 uM incubated for 48 hrs by SRB assay relative to control; format: functional; settings: read-out: GI
MCF7 = test: Anticancer activity against human MCF7 cells assessed as cell growth inhibition at 10 uM incubated for 48 hrs by SRB assay relative to control; format: functional; settings: read-out: GI
Malme-3M = test: Anticancer activity against human Malme-3M cells assessed as cell growth inhibition at 10 uM incubated for 48 hrs by SRB assay relative to control; format: functional; settings: read-out: GI
Carbonic anhydrase 9 = Carbonic anhydrase 9 (Homo sapiens, UniProt Q16790); test: Inhibition of recombinant human CA 9 preincubated for 15 mins by phenol red dye based stopped flow CO2 hydration assay
KM12 = test: Anticancer activity against human KM12 cells assessed as cell growth inhibition at 10 uM incubated for 48 hrs by SRB assay relative to control; format: functional; settings: read-out: GI
OVCAR-3 = test: Anticancer activity against human OVCAR-3 cells assessed as cell growth inhibition at 10 uM incubated for 48 hrs by SRB assay relative to control; format: functional; settings: read-out: GI
Hs-578T = test: Anticancer activity against human Hs-578T cells assessed as cell growth inhibition at 10 uM incubated for 48 hrs by SRB assay relative to control; format: functional; settings: read-out: GI
MDA-MB-468 = test: Anticancer activity against human MDA-MB-468 cells assessed as cell growth inhibition at 10 uM incubated for 48 hrs by SRB assay relative to control; format: functional; settings: read-out: GI
HOP-62 = test: Anticancer activity against human HOP-62 cells assessed as cell growth inhibition at 10 uM incubated for 48 hrs by SRB assay relative to control; format: functional; settings: read-out: GI
OVCAR-8 = test: Anticancer activity against human OVCAR-8 cells assessed as cell growth inhibition at 10 uM incubated for 48 hrs by SRB assay relative to control; format: functional; settings: read-out: GI
786-0 = test: Anticancer activity against human 786-0 cells assessed as cell growth inhibition at 10 uM incubated for 48 hrs by SRB assay relative to control; format: functional; settings: read-out: GI
U-251 = test: Anticancer activity against human U-251 cells assessed as cell growth inhibition at 10 uM incubated for 48 hrs by SRB assay relative to control; format: functional; settings: read-out: GI
MDA-MB-435 = test: Anticancer activity against human MDA-MB-435 cells assessed as cell growth inhibition at 10 uM incubated for 48 hrs by SRB assay relative to control; format: functional; settings: read-out: GI
SR = test: Anticancer activity against human SR cells assessed as cell growth inhibition at 10 uM incubated for 48 hrs by SRB assay relative to control; format: functional; settings: read-out: GI
SK-MEL-5 = test: Anticancer activity against human SK-MEL-5 cells assessed as cell growth inhibition at 10 uM incubated for 48 hrs by SRB assay relative to control; format: functional; settings: read-out: GI
BT-549 = test: Anticancer activity against human BT-549 cells assessed as cell growth inhibition at 10 uM incubated for 48 hrs by SRB assay relative to control; format: functional; settings: read-out: GI
PC-3 = test: Anticancer activity against human PC-3 cells assessed as cell growth inhibition at 10 uM incubated for 48 hrs by SRB assay relative to control; format: functional; settings: read-out: GI
MOLT-4 = test: Anticancer activity against human MOLT-4 cells assessed as cell growth inhibition at 10 uM incubated for 48 hrs by SRB assay relative to control; format: functional; settings: read-out: GI
HL-60(TB) = test: Anticancer activity against human HL-60(TB) cells assessed as cell growth inhibition at 10 uM incubated for 48 hrs by SRB assay relative to control; format: functional; settings: read-out: GI
HCT-116 = test: Anticancer activity against human HCT-116 cells assessed as cell growth inhibition at 10 uM incubated for 48 hrs by SRB assay relative to control; format: functional; settings: read-out: GI
UACC-257 = test: Anticancer activity against human UACC-257 cells assessed as cell growth inhibition at 10 uM incubated for 48 hrs by SRB assay relative to control; format: functional; settings: read-out: GI
OVCAR-5 = test: Anticancer activity against human OVCAR-5 cells assessed as cell growth inhibition at 10 uM incubated for 48 hrs by SRB assay relative to control; format: functional; settings: read-out: GI
HCC 2998 = test: Anticancer activity against human HCC 2998 cells assessed as cell growth inhibition at 10 uM incubated for 48 hrs by SRB assay relative to control; format: functional; settings: read-out: GI

| SMILES | inhibition of growth at 10 µM (SNB-19) [%] | inhibition of growth at 10 µM (A549) [%] | inhibition of growth at 10 µM (UACC-62) [%] | inhibition of growth at 10 µM (NCI-H460) [%] | inhibition of growth at 10 µM (ACHN) [%] | inhibition of growth at 10 µM (RPMI-8226) [%] | inhibition of growth at 10 µM (MDA-MB-231) [%] | inhibition of growth at 10 µM (IGROV-1) [%] | inhibition of growth at 10 µM (TK-10) [%] | inhibition of growth at 10 µM (SN12C) [%] | inhibition of growth at 10 µM (UO-31) [%] | inhibition of growth at 10 µM (SF-268) [%] | inhibition of growth at 10 µM (COLO 205) [%] | inhibition of growth at 10 µM (T47D) [%] | inhibition of growth at 10 µM (NCI/ADR-RES) [%] | inhibition of growth at 10 µM (SK-MEL-2) [%] | inhibition of growth at 10 µM (EKVX) [%] | inhibition of growth at 10 µM (NCI-H226) [%] | inhibition of growth at 10 µM (MCF7) [%] | inhibition of growth at 10 µM (Malme-3M) [%] | further results |
| --- | --- | --- | --- | --- | --- | --- | --- | --- | --- | --- | --- | --- | --- | --- | --- | --- | --- | --- | --- | --- | --- |
| NS(=O)(=O)c1ccc(Nc2nc(N/N=C/C=C/c3ccccc3)nc(Nc3ccccc3)n2)cc1 | 51 | 30 | 33 | 93 | 61 | 71 | 52 | 63 | 13 | 51 | 60 | 53 | 44 | 81 | < 10 | 55 | 28 | 41 | 84 | 49 | Ki (Carbonic anhydrase 9): 233 nM; inhibition of growth at 10 µM (KM12): 44%; inhibition of growth at 10 µM (OVCAR-3): 55%; inhibition of growth at 10 µM (Hs-578T): 60%; inhibition of growth at 10 µM (MDA-MB-468): 84%; inhibition of growth at 10 µM (HOP-62): 43%; inhibition of growth at 10 µM (OVCAR-8): 50%; inhibition of growth at 10 µM (786-0): 62%; inhibition of growth at 10 µM (U-251): 48%; inhibition of growth at 10 µM (MDA-MB-435): 48%; inhibition of growth at 10 µM (SR): 85%; inhibition of growth at 10 µM (SK-MEL-5): 59%; inhibition of growth at 10 µM (BT-549): 34%; inhibition of growth at 10 µM (PC-3): 52%; inhibition of growth at 10 µM (MOLT-4): 87%; inhibition of growth at 10 µM (HL-60(TB)): 61%; inhibition of growth at 10 µM (HCT-116): 70%; inhibition of growth at 10 µM (UACC-257): 20%; inhibition of growth at 10 µM (OVCAR-5): < 10%; inhibition of growth at 10 µM (HCC 2998): 61% |
| NS(=O)(=O)c1ccc(Nc2nc(N/N=C/c3cccs3)nc(Nc3ccccc3)n2)cc1 | < 10 | 11 | 24 | 31 | 21 | 47 | 53 | 65 | < 10 | 13 | 16 | 16 | 18 | 38 | < 10 | 24 | 24 | 29 | 47 | 20 | Ki (Carbonic anhydrase 9): 255 nM; inhibition of growth at 10 µM (KM12): 44%; inhibition of growth at 10 µM (OVCAR-3): 35%; inhibition of growth at 10 µM (Hs-578T): 34%; inhibition of growth at 10 µM (MDA-MB-468): 50%; inhibition of growth at 10 µM (HOP-62): 15%; inhibition of growth at 10 µM (OVCAR-8): 29%; inhibition of growth at 10 µM (786-0): 13%; inhibition of growth at 10 µM (U-251): < 10%; inhibition of growth at 10 µM (MDA-MB-435): 25%; inhibition of growth at 10 µM (SR): 52%; inhibition of growth at 10 µM (SK-MEL-5): 26%; inhibition of growth at 10 µM (BT-549): 22%; inhibition of growth at 10 µM (PC-3): 23%; inhibition of growth at 10 µM (MOLT-4): 42%; inhibition of growth at 10 µM (HL-60(TB)): 29%; inhibition of growth at 10 µM (HCT-116): 74%; inhibition of growth at 10 µM (UACC-257): < 10%; inhibition of growth at 10 µM (OVCAR-5): 19%; inhibition of growth at 10 µM (HCC 2998): 11% |
| NS(=O)(=O)c1ccc(Nc2nc(N/N=C/c3ccc([N+](=O)[O-])cc3)nc(Nc3ccccc3)n2)cc1 | 79 | < 10 | 54 | 98 | 17 | 56 | 54 | 47 | < 10 | 72 | 18 | 73 | 76 | 85 | < 10 | 81 | 16 | 40 | 90 | 63 | Ki (Carbonic anhydrase 9): 31.7 nM; inhibition of growth at 10 µM (KM12): 62%; inhibition of growth at 10 µM (OVCAR-3): 53%; inhibition of growth at 10 µM (Hs-578T): 46%; inhibition of growth at 10 µM (MDA-MB-468): 98%; inhibition of growth at 10 µM (HOP-62): 90%; inhibition of growth at 10 µM (OVCAR-8): 66%; inhibition of growth at 10 µM (786-0): 91%; inhibition of growth at 10 µM (U-251): 81%; inhibition of growth at 10 µM (MDA-MB-435): 66%; inhibition of growth at 10 µM (SR): 84%; inhibition of growth at 10 µM (SK-MEL-5): 67%; inhibition of growth at 10 µM (BT-549): 81%; inhibition of growth at 10 µM (PC-3): 49%; inhibition of growth at 10 µM (MOLT-4): 88%; inhibition of growth at 10 µM (HL-60(TB)): 64%; inhibition of growth at 10 µM (HCT-116): 83%; inhibition of growth at 10 µM (UACC-257): 17%; inhibition of growth at 10 µM (OVCAR-5): 18%; inhibition of growth at 10 µM (HCC 2998): 80% |

Reference: ChEMBL document CHEMBL5154747, “Discovery of new carbonic anhydrase IX inhibitors as anticancer agents by toning the hydrophobic and hydrophilic rims of the active site to encounter the dual-tail approach” (Eur J Med Chem, 2022)
